One data set has as its target T1, BadM (Rhodopseudomonas palustris, UniProt O07465).
T1 construct: plasmid pRpBadM8, expressed in E. coli C41(lambda-DE3) pka12::kan+, purified; tag details in Text S1
Briefly: EMSA with 6-FAM-labelled badDEFGAB promoter probe. Conditions: 72 nM BadM, 12 nM probe; 10 mM compound, blocks DNA binding; no effect at 5 mM.

In the next data set the target is T2, MmBadL (Paramagnetospirillum magneticum, UniProt Q2W1S9).
T2 construct: gene amb3392; plasmid pMmBadL2, expressed in E. coli C41(lambda-DE3) pka12::kan+, purified; tag details in Text S1
T2 sequence (Q2W1S9 entry or part of it): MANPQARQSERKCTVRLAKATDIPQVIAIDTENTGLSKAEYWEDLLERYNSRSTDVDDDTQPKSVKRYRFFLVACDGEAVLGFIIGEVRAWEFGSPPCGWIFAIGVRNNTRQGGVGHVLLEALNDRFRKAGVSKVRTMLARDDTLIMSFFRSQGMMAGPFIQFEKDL
Kind of data set: [[…]-14C]acetyl-CoA transfer, TLC phosphor imaging. As to conditions: co-substrate acetyl-CoA. It counts as biochemical.

The target of another data set is T3, GmBadL (Geobacter metallireducens, UniProt Q39TU9).
T3 construct: gene Gmet_2096; plasmid pGmBadL1, expressed in E. coli C41(lambda-DE3) pka12::kan+, purified; tag details in Text S1
T3 sequence (Q39TU9 entry or part of it): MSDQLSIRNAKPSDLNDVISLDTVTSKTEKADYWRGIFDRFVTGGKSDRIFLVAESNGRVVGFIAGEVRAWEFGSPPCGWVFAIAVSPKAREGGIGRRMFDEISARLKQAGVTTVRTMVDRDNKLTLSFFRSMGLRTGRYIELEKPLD
Briefly: [[…]-14C]acetyl-CoA transfer, TLC phosphor imaging. The class given is biochemical. Conditions: co-substrate acetyl-CoA.

Data set [1] deals with T4, BadM (Rhodopseudomonas palustris) (UniProt O07465).
T4 sequence: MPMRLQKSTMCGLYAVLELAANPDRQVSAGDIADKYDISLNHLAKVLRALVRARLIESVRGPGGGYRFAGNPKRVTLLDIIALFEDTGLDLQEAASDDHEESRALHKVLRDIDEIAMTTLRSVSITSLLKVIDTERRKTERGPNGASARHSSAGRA
Kind of data set: EMSA. Conditions: 25 µL; Tris 20 mM pH 7.5 (at 25°C), KCl 50 mM, DTT 1 mM, glycerol (rest of buffer not in the material); probe 12 nM (0.303 pmol), BadM 72 nM (1.8 pmol) ….

`CC(=O)Nc1ccccc1C(=O)O` [2-ABA^Ac, 2-acetamidobenzoate]: the “EMSA with 6-FAM-labelled badDEFGAB promoter probe” value at BadM is given as “addition of 2-acetamidobenzoate blocked binding of BadM to its DNA target”.

`Nc1ccc(C(=O)O)cc1` [4-ABA, 4-aminobenzoate]: the “[1-14C]acetyl-CoA transfer, TLC phosphor imaging” value on MmBadL is “MmBadL and GmBadL acetylated 4-aminobenzoate producing 4-acetamidobenzoate”; at GmBadL, “MmBadL and GmBadL acetylated 4-aminobenzoate producing 4-acetamidobenzoate”.

With “GTGATGCGGCCTGTCGAGCATGCCGGTCGTCCTCCCTGCCCGGCGGCTCTGCCGGGTCGCGCTGCCGGCCATTTTCCGGCCCAGCGATTTAAATGTAATCTAGTATCGGAATGCGATAATTAATTTGATGCGGATCAAATTTGGCAAAGGCACAGCCGACACGGGCCGACGCCGGCTCGTAGTCGGGAGGCTCAGATATCGATCGCGATCTT (double strand) [badDEFGAB promoter / badCD intergenic probe]”, the binding entry in data set [1] is recorded as “binds”.
